Laboratory results from ChEMBL document CHEMBL4190180 (Medchemcomm, 2016).

Tests used:
[1] = Antiproliferative activity against mouse L5178 cells after 72 hrs by MTT assay; format: functional, cell-based; conditions: L5178, 72 h
[2] = Antiproliferative activity against mouse L5178 cells harboring human ABCB1 after 72 hrs by MTT assay; format: functional, cell-based; conditions: L5178, 72 h
[3] = tested on: SH-SY5Y; test: Antiproliferative activity against human SH-SY5Y cells after 48 hrs by MTT assay
[4] = tested on: MCF7; test: Antiproliferative activity against human MCF7 cells after 72 hrs by MTT assay; format: functional, cell-based; conditions: MCF7, 72 h
[5] = tested on: T47D; test: Antiproliferative activity against human T47D cells after 72 hrs by MTT assay; format: functional, cell-based
[6] = tested on: MDA-MB-231; test: Antiproliferative activity against human MDA-MB-231 cells after 72 hrs by MTT assay; format: functional, cell-based; conditions: MDA-MB-231, 72 h
[7] = tested on: MDA-MB-361; test: Antiproliferative activity against human MDA-MB-361 cells after 72 hrs by MTT assay; format: functional, cell-based; conditions: MDA-MB-361, 72 h
[8] = molecular target: T1, ATP-dependent translocase ABCB1 (Homo sapiens, UniProt P08183); test: Inhibition of human ABCB1 expressed in mouse L5178 cells assessed as rhodamine-123 accumulation by measuring fluorescence activity ratio at 2 uM pretreated for 10 mins followed by rhodamine-123 addition measured after 20 mins by flow cytometric analysis; format: cell-based
[9] = molecular target: T1, ATP-dependent translocase ABCB1; test: Inhibition of human ABCB1 expressed in mouse L5178 cells assessed as rhodamine-123 accumulation by measuring fluorescence activity ratio at 20 uM pretreated for 10 mins followed by rhodamine-123 addition measured after 20 mins by flow cytometric analysis; format: cell-based
[10] = molecular target: T1, ATP-dependent translocase ABCB1; test: Inhibition of human ABCB1 expressed in mouse L5178 cells assessed as potentiation of doxorubicin-induced cytotoxicity by measuring combination index at ED50 in presence of 10.2:1 ratio of doxorubicin to test compound after 48 hrs by MTT assay; format: cell-based
[11] = molecular target: T1, ATP-dependent translocase ABCB1; test: Inhibition of human ABCB1 expressed in mouse L5178 cells assessed as potentiation of doxorubicin-induced cytotoxicity by measuring combination index at ED50 in presence of 20.4:1 ratio of doxorubicin to test compound after 48 hrs by MTT assay; format: cell-based
[12] = molecular target: T1, ATP-dependent translocase ABCB1; test: Inhibition of human ABCB1 expressed in mouse L5178 cells assessed as potentiation of doxorubicin-induced cytotoxicity by measuring combination index at ED50 in presence of 81.5:1 ratio of doxorubicin to test compound after 48 hrs by MTT assay; format: cell-based
[13] = Potentiation of doxorubicin-induced cytotoxicity in mouse L5178 cells assessed as combination index at ED50 in presence of 81.5:1 ratio of doxorubicin to test compound after 48 hrs by MTT assay; format: functional
[14] = Potentiation of doxorubicin-induced cytotoxicity in mouse L5178 cells assessed as combination index at ED50 in presence of 163:1 ratio of doxorubicin to test compound after 48 hrs by MTT assay; format: functional
[15] = Potentiation of doxorubicin-induced cytotoxicity in mouse L5178 cells assessed as combination index at ED50 in presence of 326:1 ratio of doxorubicin to test compound after 48 hrs by MTT assay; format: functional
[16] = molecular target: T1, ATP-dependent translocase ABCB1; test: Inhibition of human ABCB1 expressed in mouse L5178 cells assessed as potentiation of doxorubicin-induced cytotoxicity by measuring combination index at ED75 in presence of 10.2:1 ratio of doxorubicin to test compound after 48 hrs by MTT assay; format: cell-based
[17] = molecular target: T1, ATP-dependent translocase ABCB1; test: Inhibition of human ABCB1 expressed in mouse L5178 cells assessed as potentiation of doxorubicin-induced cytotoxicity by measuring combination index at ED75 in presence of 20.4:1 ratio of doxorubicin to test compound after 48 hrs by MTT assay; format: cell-based
[18] = molecular target: T1, ATP-dependent translocase ABCB1; test: Inhibition of human ABCB1 expressed in mouse L5178 cells assessed as potentiation of doxorubicin-induced cytotoxicity by measuring combination index at ED75 in presence of 81.5:1 ratio of doxorubicin to test compound after 48 hrs by MTT assay; format: cell-based
[19] = Potentiation of doxorubicin-induced cytotoxicity in mouse L5178 cells assessed as combination index at ED75 in presence of 81.5:1 ratio of doxorubicin to test compound after 48 hrs by MTT assay; format: functional
[20] = Potentiation of doxorubicin-induced cytotoxicity in mouse L5178 cells assessed as combination index at ED75 in presence of 163:1 ratio of doxorubicin to test compound after 48 hrs by MTT assay; format: functional
[21] = Potentiation of doxorubicin-induced cytotoxicity in mouse L5178 cells assessed as combination index at ED75 in presence of 326:1 ratio of doxorubicin to test compound after 48 hrs by MTT assay; format: functional
[22] = molecular target: T1, ATP-dependent translocase ABCB1; test: Inhibition of human ABCB1 expressed in mouse L5178 cells assessed as potentiation of doxorubicin-induced cytotoxicity by measuring combination index at ED90 in presence of 10.2:1 ratio of doxorubicin to test compound after 48 hrs by MTT assay; format: cell-based
[23] = molecular target: T1, ATP-dependent translocase ABCB1; test: Inhibition of human ABCB1 expressed in mouse L5178 cells assessed as potentiation of doxorubicin-induced cytotoxicity by measuring combination index at ED90 in presence of 20.4:1 ratio of doxorubicin to test compound after 48 hrs by MTT assay; format: cell-based
[24] = molecular target: T1, ATP-dependent translocase ABCB1; test: Inhibition of human ABCB1 expressed in mouse L5178 cells assessed as potentiation of doxorubicin-induced cytotoxicity by measuring combination index at ED90 in presence of 81.5:1 ratio of doxorubicin to test compound after 48 hrs by MTT assay; format: cell-based
[25] = Potentiation of doxorubicin-induced cytotoxicity in mouse L5178 cells assessed as combination index at ED90 in presence of 81.5:1 ratio of doxorubicin to test compound after 48 hrs by MTT assay; format: functional
[26] = Potentiation of doxorubicin-induced cytotoxicity in mouse L5178 cells assessed as combination index at ED90 in presence of 163:1 ratio of doxorubicin to test compound after 48 hrs by MTT assay; format: functional
[27] = Potentiation of doxorubicin-induced cytotoxicity in mouse L5178 cells assessed as combination index at ED90 in presence of 326:1 ratio of doxorubicin to test compound after 48 hrs by MTT assay; format: functional
[28] = Selectivity ratio of IC50 for human MCF7 cells to IC50 for human T47D cells; format: functional

T1 sequence (P08183 whole entry): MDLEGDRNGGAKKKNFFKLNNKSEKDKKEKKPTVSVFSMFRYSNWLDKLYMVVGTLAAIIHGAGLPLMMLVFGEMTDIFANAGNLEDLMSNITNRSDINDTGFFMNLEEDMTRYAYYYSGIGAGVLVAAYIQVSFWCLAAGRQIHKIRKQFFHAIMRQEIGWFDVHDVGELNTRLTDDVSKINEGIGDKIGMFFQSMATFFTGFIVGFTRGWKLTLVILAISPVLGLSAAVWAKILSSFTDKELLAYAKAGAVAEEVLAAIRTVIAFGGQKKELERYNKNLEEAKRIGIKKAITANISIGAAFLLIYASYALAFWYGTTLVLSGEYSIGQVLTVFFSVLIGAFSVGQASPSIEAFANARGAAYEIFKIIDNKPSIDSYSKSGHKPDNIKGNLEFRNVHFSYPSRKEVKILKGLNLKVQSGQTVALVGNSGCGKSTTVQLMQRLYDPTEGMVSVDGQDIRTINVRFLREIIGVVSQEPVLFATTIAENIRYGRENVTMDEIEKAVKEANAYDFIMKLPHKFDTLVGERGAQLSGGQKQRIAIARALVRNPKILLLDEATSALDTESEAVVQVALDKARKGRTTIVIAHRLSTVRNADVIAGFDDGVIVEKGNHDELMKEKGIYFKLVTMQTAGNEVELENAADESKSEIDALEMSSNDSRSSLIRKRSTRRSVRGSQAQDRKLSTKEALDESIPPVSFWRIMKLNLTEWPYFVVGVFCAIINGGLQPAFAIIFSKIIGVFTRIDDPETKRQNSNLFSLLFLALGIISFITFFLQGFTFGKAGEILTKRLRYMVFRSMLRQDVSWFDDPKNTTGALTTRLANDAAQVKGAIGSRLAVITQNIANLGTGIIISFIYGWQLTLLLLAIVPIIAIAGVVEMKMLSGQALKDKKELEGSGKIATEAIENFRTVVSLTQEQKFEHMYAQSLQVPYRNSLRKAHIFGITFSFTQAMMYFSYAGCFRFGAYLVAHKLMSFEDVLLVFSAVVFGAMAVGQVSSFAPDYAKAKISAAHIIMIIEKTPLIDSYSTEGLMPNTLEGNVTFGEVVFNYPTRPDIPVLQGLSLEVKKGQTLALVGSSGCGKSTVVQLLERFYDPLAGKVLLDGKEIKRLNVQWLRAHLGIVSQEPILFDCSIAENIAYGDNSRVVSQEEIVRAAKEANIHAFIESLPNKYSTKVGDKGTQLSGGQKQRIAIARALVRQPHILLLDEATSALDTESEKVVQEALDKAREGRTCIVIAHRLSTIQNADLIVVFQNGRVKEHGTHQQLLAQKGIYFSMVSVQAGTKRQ

| IC50 [3] [µM] | IC50 [4] [µM] | IC50 [5] [µM] | IC50 [6] [µM] | IC50 [7] [µM] | Ratio [8] | Ratio [9] | Structure (SMILES) | IC50 [1] [µM] | IC50 [2] [µM] | CI [10] | CI [11] | CI [12] | CI [13] | CI [14] | CI [15] | CI [16] | CI [17] | CI [18] | CI [19] | CI [20] | further results |
| --- | --- | --- | --- | --- | --- | --- | --- | --- | --- | --- | --- | --- | --- | --- | --- | --- | --- | --- | --- | --- | --- |
| 0.14 | – | – | – | – | – | – | COc1cccc2c1C(=O)c1c(O)c3c(c(O)c1C2=O)C[C@@](O)(C(=O)CO)C[C@@H]3O[C@H]1C[C@H](N)[C@H](O)[C@H](C)O1 [DOXORUBICIN] | 0.23 | 3.54 | – | – | – | – | – | – | – | – | – | – | – | – |
| 70.7 | 63.1 | 70.3 | 48.9 | 30.9 | 1.59 | 38.62 | CC(C)(F)CC[C@@H]1OC(C)(C)O[C@]1(C)[C@H]1CC[C@@]2(O)C3=CC(=O)[C@@H]4C[C@H]5OC(C)(C)O[C@H]5C[C@]4(C)[C@H]3CC[C@]12C | 48.3 | 50.1 | 0.19 | 0.19 | 0.35 | 0.8 | 0.85 | 1.04 | 0.17 | 0.19 | 0.33 | 0.66 | 0.76 | CI [21]: 0.96; CI [22]: 0.16; CI [23]: 0.19; CI [24]: 0.33; CI [25]: 0.56; CI [26]: 0.71; CI [27]: 0.91 |
| 126 | 128 | 49.2 | 98.4 | 53.8 | 11.02 | 89.78 | CC(C)(F)CC[C@@H]1OC(C)(C)O[C@]1(C)[C@H]1CC[C@@]2(F)C3=CC(=O)[C@@H]4C[C@H]5OC(C)(C)O[C@H]5C[C@]4(C)[C@H]3CC[C@]12C | 88.6 | 82.3 | 0.23 | 0.21 | 0.24 | 0.7 | 0.6 | 0.72 | 0.11 | 0.12 | 0.16 | 0.42 | 0.44 | Ratio IC50 [28]: 3; CI [21]: 0.59; CI [22]: 0.06; CI [23]: 0.07; CI [24]: 0.11; CI [25]: 0.27; CI [26]: 0.34; CI [27]: 0.52 |
| 18.8 | 43.8 | 17.4 | 50.2 | 11.8 | 31.15 | 109.37 | CC(C)(F)CC[C@@H]1OC(C)(C)O[C@]1(C)[C@H]1CC=C2C3=CC(=O)[C@@H]4C[C@H]5OC(C)(C)O[C@H]5C[C@]4(C)[C@H]3CC[C@@]21C | 14.1 | 17.4 | 0.56 | 0.48 | 0.78 | 0.73 | 0.8 | 0.79 | 0.34 | 0.36 | 0.73 | 0.8 | 0.87 | Ratio IC50 [28]: 3; CI [21]: 0.84; CI [22]: 0.22; CI [23]: 0.28; CI [24]: 0.69; CI [25]: 0.89; CI [26]: 0.95; CI [27]: 0.9 |
| 127 | 75.1 | 84.7 | 106 | 69.2 | 3.33 | 11.28 | CC(C)(O)CC[C@@H]1OC(C)(C)O[C@]1(C)[C@H]1CC[C@@]2(O)C3=CC(=O)[C@@H]4C[C@H]5OC(C)(C)O[C@H]5C[C@]4(C)[C@H]3CC[C@]12C | 82.9 | 106 | 0.31 | 0.27 | 0.39 | 0.74 | 0.67 | 0.61 | 0.18 | 0.14 | 0.22 | 0.71 | 0.55 | CI [21]: 0.55; CI [22]: 0.11; CI [23]: 0.07; CI [24]: 0.12; CI [25]: 0.68; CI [26]: 0.46; CI [27]: 0.51 |
| 20.8 | 30.1 | 10.9 | 38.5 | 13.8 | 1.28 | 57.36 | CC(C)(O)CC[C@@H]1OC(C)(C)O[C@]1(C)[C@H]1CC=C2C3=CC(=O)[C@@H]4C[C@H]5OC(C)(C)O[C@H]5C[C@]4(C)[C@H]3CC[C@@]21C | 14.6 | 19.3 | 0.55 | 0.54 | 1.09 | 0.99 | 0.93 | 0.9 | 0.45 | 0.44 | 0.87 | 0.89 | 0.89 | Ratio IC50 [28]: 3; CI [21]: 0.81; CI [22]: 0.39; CI [23]: 0.37; CI [24]: 0.69; CI [25]: 0.82; CI [26]: 0.86; CI [27]: 0.73 |
